Values joined by “and” are separate entries in the source; they are usually repeats but may differ in a detail not shown here. Equal values may be shown once.
Legend:
[1] = target: T1, norepinephrine transporter (NET, SLC6A2) (Homo sapiens, UniProt P23975); test: radioligand displacement assay on NET (Eurofins Cerep SA); type: binding; details: for inhibition at 10 µM: read-out: % Inhibition @ 10 µM on NET; for inhibition at 0.01 µM: read-out: % Inhibition @ 10 nM on NET; for inhibition at 0.1 µM: read-out: % Inhibition @ 100 nM on NET
T1 construct: purchased Eurofins Cerep SA

[2] = target: T2, dopamine transporter (DAT, SLC6A3) (Homo sapiens, UniProt Q01959); test: radioligand displacement assay on DAT (Eurofins Cerep SA); type: binding; details: for inhibition at 10 µM: read-out: % Inhibition @ 10 µM on DAT; for inhibition at 0.1 µM: read-out: % Inhibition @ 100 nM on DAT
T2 construct: purchased Eurofins Cerep SA

[3] = target: T3, serotonine (5-HT) transporter (SERT, SLC6A4) (Homo sapiens, UniProt P31645); test: radioligand displacement assay on SERT (Eurofins Cerep SA); type: binding; details: for inhibition at 10 µM: read-out: % Inhibition @ 10 µM on SERT; for inhibition at 0.1 µM: read-out: % Inhibition @ 100 nM on SERT
T3 construct: purchased Eurofins Cerep SA

[4] = target: T4, σ-1R (Homo sapiens, UniProt Q99720); test: radioligand displacement assay on σ-1R (Eurofins Cerep SA); type: binding; details: estimated from duplicate dilution series; read-out: IC50 (nM) sigma-1R
T4 construct: purchased Eurofins Cerep SA

[5] = target: T5, ACHe (Homo sapiens, UniProt P22303); test: in vitro polypharmacology panel: ACHe; type: binding
T5 construct: purchased Eurofins Cerep SA

[6] = target: T6, Cannabinoid (Homo sapiens, UniProt P21554); test: in vitro polypharmacology panel: Cannabinoid; type: binding
T6 construct: purchased Eurofins Cerep SA

[7] = target: T7, Cannabinoid 2 (Homo sapiens, UniProt P34972); test: in vitro polypharmacology panel: Cannabinoid 2; type: binding
T7 construct: purchased Eurofins Cerep SA

[8] = target: T8, HEK-Gly-RA1 (Homo sapiens, UniProt P23415); test: in vitro polypharmacology panel: HEK-Gly-RA1; type: binding
T8 construct: host or cells: HEK

[9] = target: T9, Dopamine D1 (Homo sapiens, UniProt P21728); test: in vitro polypharmacology panel: Dopamine D1; type: binding
T9 construct: purchased Eurofins Cerep SA

[10] = target: T10, Dopamine D2s (Homo sapiens, UniProt P14416); test: in vitro polypharmacology panel: Dopamine D2s; type: binding
T10 construct: purchased Eurofins Cerep SA

[11] = target: T11, Dopamine D2L (Homo sapiens, UniProt P14416); test: in vitro polypharmacology panel: Dopamine D2L; type: binding
T11 construct: purchased Eurofins Cerep SA

[12] = target: T12, Dopamine D3 (Homo sapiens, UniProt P35462); test: in vitro polypharmacology panel: Dopamine D3; type: binding
T12 construct: purchased Eurofins Cerep SA

[13] = target: T13, hERG (Homo sapiens, UniProt Q12809); test: in vitro polypharmacology panel: hERG; type: binding
T13 construct: purchased Eurofins Cerep SA

[14] = target: T14, Histaminic H1 (Homo sapiens, UniProt P35367); test: in vitro polypharmacology panel: Histaminic H1; type: binding
T14 construct: purchased Eurofins Cerep SA

[15] = target: T15, Histaminic H2 (Homo sapiens, UniProt P25021); test: in vitro polypharmacology panel: Histaminic H2; type: binding
T15 construct: purchased Eurofins Cerep SA

[16] = target: T16, Histaminic H3 (Homo sapiens, UniProt Q9Y5N1); test: in vitro polypharmacology panel: Histaminic H3; type: binding
T16 construct: purchased Eurofins Cerep SA

[17] = target: T17, Muscarinic M1 (Homo sapiens, UniProt P11229); test: in vitro polypharmacology panel: Muscarinic M1; type: binding
T17 construct: purchased Eurofins Cerep SA

[18] = target: T18, Muscarinic M2 (Homo sapiens, UniProt P08172); test: in vitro polypharmacology panel: Muscarinic M2; type: binding
T18 construct: purchased Eurofins Cerep SA

[19] = target: T19, Serotonin 5-HT 1A (Homo sapiens, UniProt P08908); test: in vitro polypharmacology panel: Serotonin 5-HT 1A; type: binding
T19 construct: purchased Eurofins Cerep SA

[20] = target: T20, Serotonin 5-HT 1B (Homo sapiens, UniProt P28222); test: in vitro polypharmacology panel: Serotonin 5-HT 1B; type: binding
T20 construct: purchased Eurofins Cerep SA

[21] = target: T21, Serotonin 5-HT 2A (Homo sapiens, UniProt P28223); test: in vitro polypharmacology panel: Serotonin 5-HT 2A; type: binding
T21 construct: Eurofins Cerep SA (France), contract assay

[22] = target: T22, Serotonin 5-HT 2B (Homo sapiens, UniProt P41595); test: in vitro polypharmacology panel: Serotonin 5-HT 2B; type: binding
T22 construct: Eurofins Cerep SA (France), contract assay

[23] = target: T23, Serotonin 5-HT 3 (Homo sapiens, UniProt P46098); test: in vitro polypharmacology panel: Serotonin 5-HT 3; type: binding
T23 construct: Eurofins Cerep SA (France), contract assay

[24] = system: mice; test: observation of mice after acute i.p. administration; type: in vivo, C57Bl6/J mice; details: 1.0 or 10 mg/kg i.p., male mice
From the text: Fresh bedding and environmental enrichment were provided weekly.

[25] = in vivo; details: both, C57BL/6JRJ, mouse, 5 mg/kg
[26] = system: dopamine (DA) uptake in PC12 cells; test: cells; details: Rattus norvegicus, PC-12, 2 h, read-out: IC50 (nM) - DA Uptake Inhibition
From the text: The system was operated in positive mode. […] MS peaks were quantified using a calibration curve.

T2 sequence (Q01959 whole entry): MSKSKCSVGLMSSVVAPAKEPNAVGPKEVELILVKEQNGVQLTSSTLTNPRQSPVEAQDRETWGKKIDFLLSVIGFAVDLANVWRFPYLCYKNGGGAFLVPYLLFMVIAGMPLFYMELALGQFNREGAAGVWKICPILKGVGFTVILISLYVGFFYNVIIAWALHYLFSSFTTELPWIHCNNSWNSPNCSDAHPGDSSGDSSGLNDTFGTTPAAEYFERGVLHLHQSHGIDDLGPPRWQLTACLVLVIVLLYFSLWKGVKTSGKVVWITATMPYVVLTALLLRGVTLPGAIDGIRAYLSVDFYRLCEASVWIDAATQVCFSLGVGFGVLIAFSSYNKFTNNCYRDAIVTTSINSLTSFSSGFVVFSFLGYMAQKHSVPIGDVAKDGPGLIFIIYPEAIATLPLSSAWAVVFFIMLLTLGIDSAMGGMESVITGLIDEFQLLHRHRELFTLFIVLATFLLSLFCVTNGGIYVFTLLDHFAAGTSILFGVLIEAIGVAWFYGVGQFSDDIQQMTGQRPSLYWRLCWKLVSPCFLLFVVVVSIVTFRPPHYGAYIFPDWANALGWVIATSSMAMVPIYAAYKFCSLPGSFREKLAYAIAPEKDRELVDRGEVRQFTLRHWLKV
T1 sequence (P23975 whole entry): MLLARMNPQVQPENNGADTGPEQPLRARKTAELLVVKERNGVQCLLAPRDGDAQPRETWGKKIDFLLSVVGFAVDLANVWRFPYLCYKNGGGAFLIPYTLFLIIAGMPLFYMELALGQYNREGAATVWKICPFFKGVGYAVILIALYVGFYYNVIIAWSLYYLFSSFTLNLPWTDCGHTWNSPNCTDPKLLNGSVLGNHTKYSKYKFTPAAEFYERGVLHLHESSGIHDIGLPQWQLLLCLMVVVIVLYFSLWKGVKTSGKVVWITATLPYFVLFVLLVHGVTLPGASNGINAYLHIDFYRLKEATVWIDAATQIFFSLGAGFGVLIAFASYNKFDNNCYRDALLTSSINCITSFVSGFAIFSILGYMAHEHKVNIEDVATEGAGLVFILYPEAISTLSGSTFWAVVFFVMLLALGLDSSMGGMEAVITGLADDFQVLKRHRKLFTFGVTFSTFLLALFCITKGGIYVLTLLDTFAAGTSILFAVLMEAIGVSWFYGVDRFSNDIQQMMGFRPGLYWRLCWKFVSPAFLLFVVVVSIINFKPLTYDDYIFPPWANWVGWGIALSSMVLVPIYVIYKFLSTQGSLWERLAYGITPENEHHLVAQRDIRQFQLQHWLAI
T3 sequence (P31645 whole entry): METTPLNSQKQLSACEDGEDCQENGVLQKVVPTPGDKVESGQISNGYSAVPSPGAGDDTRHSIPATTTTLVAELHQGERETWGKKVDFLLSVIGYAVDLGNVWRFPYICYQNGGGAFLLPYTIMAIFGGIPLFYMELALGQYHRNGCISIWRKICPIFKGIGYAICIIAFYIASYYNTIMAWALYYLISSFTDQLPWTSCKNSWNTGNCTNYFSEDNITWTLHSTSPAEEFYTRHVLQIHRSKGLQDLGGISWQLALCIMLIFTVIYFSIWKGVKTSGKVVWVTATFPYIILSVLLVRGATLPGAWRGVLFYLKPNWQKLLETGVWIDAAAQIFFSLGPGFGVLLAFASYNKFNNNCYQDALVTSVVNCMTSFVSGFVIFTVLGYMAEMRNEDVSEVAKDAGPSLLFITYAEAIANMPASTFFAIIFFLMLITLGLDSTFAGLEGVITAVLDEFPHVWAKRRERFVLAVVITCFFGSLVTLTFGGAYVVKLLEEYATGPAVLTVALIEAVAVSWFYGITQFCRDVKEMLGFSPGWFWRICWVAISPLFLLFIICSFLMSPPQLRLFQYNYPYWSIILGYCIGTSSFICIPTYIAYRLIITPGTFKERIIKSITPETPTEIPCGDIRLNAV
T4 sequence (Q99720 whole entry, species assumed): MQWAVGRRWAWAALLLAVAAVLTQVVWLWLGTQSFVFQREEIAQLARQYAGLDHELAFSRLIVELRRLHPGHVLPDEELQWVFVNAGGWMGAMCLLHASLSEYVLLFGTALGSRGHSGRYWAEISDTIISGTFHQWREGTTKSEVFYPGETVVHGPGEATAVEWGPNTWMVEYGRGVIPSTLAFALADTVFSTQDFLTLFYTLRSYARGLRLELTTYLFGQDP
T5 sequence (P22303 32-614): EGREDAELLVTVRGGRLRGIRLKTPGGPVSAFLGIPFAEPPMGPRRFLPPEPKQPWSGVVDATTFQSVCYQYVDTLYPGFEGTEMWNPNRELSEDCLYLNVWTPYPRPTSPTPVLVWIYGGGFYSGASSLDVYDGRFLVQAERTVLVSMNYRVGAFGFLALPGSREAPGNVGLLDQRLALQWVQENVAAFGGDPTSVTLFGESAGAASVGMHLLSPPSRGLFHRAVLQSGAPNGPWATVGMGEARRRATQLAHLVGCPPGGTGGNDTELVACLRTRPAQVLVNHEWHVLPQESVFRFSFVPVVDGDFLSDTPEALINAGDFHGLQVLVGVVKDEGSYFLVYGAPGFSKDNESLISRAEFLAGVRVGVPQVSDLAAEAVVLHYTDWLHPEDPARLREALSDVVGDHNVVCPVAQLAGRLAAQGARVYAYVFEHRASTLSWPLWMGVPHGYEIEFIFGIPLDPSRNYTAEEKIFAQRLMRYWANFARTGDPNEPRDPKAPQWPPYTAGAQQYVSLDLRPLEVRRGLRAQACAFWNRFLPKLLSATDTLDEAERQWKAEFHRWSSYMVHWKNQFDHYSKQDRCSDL
T19 sequence (P08908 whole entry): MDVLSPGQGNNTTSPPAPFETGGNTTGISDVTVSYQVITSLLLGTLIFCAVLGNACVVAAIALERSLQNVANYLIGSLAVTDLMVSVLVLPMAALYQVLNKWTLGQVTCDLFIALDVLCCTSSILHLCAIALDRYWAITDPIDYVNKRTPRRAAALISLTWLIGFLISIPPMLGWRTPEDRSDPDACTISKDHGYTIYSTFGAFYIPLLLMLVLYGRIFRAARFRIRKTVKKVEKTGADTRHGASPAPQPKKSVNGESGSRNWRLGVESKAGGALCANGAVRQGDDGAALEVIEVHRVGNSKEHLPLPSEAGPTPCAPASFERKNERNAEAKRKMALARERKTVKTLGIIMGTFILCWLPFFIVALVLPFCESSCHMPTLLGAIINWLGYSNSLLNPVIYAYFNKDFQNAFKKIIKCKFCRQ
T11 sequence (P14416 whole entry): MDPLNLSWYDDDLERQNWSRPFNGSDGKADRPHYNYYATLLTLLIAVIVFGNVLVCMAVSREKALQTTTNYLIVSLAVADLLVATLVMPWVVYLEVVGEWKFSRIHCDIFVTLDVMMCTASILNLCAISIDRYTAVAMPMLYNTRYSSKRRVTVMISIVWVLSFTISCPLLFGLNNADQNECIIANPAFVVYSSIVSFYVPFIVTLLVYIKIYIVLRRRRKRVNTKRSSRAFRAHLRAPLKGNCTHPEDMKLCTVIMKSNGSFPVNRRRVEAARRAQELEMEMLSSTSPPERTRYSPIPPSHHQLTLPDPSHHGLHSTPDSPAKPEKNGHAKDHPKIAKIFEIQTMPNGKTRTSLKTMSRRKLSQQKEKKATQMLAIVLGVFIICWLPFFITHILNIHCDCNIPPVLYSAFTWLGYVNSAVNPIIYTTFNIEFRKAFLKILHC
T12 sequence (P35462 whole entry): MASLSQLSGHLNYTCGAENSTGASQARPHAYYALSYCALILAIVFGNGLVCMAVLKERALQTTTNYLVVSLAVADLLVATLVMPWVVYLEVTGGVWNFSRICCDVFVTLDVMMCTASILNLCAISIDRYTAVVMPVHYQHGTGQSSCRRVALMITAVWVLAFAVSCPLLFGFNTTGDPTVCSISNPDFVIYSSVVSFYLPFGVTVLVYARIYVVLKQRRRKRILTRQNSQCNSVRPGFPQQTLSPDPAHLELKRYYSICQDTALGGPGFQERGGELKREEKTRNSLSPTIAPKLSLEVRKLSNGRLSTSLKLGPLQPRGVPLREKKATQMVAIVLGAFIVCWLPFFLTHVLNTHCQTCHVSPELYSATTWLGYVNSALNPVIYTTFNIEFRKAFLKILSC
T14 sequence (P35367 whole entry): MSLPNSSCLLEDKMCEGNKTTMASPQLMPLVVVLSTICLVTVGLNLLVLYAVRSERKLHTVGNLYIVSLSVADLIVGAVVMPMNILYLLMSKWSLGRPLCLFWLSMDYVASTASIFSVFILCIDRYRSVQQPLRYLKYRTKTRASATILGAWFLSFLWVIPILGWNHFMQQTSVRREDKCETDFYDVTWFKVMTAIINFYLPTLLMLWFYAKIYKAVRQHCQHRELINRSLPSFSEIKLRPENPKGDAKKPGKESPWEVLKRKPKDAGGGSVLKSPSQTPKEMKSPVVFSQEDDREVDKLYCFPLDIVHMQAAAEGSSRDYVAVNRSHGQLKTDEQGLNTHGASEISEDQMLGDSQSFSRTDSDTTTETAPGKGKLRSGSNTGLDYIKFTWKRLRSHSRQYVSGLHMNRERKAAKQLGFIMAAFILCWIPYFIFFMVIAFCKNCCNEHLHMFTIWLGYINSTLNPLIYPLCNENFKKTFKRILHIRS
T22 sequence (P41595 whole entry): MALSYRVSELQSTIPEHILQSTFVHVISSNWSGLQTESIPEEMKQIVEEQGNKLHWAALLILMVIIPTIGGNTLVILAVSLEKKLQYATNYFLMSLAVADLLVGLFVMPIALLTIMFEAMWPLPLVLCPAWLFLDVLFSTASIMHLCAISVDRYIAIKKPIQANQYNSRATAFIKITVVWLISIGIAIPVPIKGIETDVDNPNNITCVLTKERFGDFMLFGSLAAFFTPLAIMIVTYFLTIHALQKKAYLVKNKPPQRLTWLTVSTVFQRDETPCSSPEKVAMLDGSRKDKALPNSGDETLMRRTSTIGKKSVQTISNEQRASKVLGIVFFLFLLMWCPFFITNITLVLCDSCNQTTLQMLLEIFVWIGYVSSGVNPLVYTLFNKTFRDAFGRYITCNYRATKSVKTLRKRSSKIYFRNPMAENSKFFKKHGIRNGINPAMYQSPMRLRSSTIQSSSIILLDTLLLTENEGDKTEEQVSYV

C1CC[C@H]2NCC[C@H]2NC1 (relative stereo) [2a, Decahydropyrrolo[3,2-b]azepine]
inhibition at 10 µM [1]: 1.7% | inhibition at 10 µM [2]: 6.4% | inhibition at 10 µM [3]: 7.6%

C1CC[C@@H]2NCC[C@H]2NC1 (relative stereo) [2b, Decahydropyrrolo[3,2-b]azepine]
inhibition at 10 µM [1]: 3% | inhibition at 10 µM [2]: 13.6% | inhibition at 10 µM [3]: -1.9%

C1CC[C@@H]2NCCC[C@H]2NC1 (relative stereo) [3b]
inhibition at 10 µM [1]: 8.8% | inhibition at 10 µM [2]: -5.2% | inhibition at 10 µM [3]: 11.8%

c1ccc(CN2CC[C@H]3NCCCC[C@H]32)cc1 (relative stereo) [17a, 1-Benzyldecahydropyrrolo[3,2-b]azepine]
inhibition at 10 µM [1]: 21.7% | inhibition at 10 µM [2]: 78.3% | inhibition at 10 µM [3]: 21.4%

c1ccc(CN2CC[C@H]3NCCCC[C@@H]32)cc1 (relative stereo) [17b, 1-Benzyldecahydropyrrolo[3,2-b]azepine]
inhibition at 10 µM [1]: 10.8% | inhibition at 10 µM [2]: 89% | inhibition at 10 µM [3]: 13.7%

c1ccc(CN2CCC[C@H]3NCCCC[C@H]32)cc1 (relative stereo) [27a, 1-Benzyldecahydro-1H-pyrido[3,2-b]azepine]
inhibition at 10 µM [1]: 13.9% | inhibition at 10 µM [2]: 85.5% | inhibition at 10 µM [3]: 87.7%

c1ccc(CN2CCC[C@H]3NCCCC[C@@H]32)cc1 (relative stereo) [27b, 1-Benzyldecahydro-1H-pyrido[3,2-b]azepine]
inhibition at 10 µM [1]: -5.1% | inhibition at 10 µM [2]: 19.4% | inhibition at 10 µM [3]: 6.9%

c1ccc(CN2CCCC[C@@H]3NCC[C@H]32)cc1 [1b, 4-Benzyldecahydropyrrolo[3,2-b]azepine]
inhibition at 10 µM [2]: 81.8% | inhibition at 10 µM [3]: 68.6%

C1CCC2NCCCCC2NC1 (stereo not shown) [4b, Dodecahydroazepino[3,2-b]azepine]
inhibition at 10 µM [1]: -7.1% | inhibition at 10 µM [2]: -0.5% | inhibition at 10 µM [3]: -1%

c1ccc(CN2CCCC[C@H]3NCCC[C@H]32)cc1 [40a, 5-Benzyldecahydro-1H-pyrido[3,2-b]azepine]
inhibition at 10 µM [1]: 88.7% | inhibition at 10 µM [2]: 94.4% | inhibition at 10 µM [3]: 91%

c1ccc(CN2CCCC[C@@H]3NCCC[C@H]32)cc1 [40b, 5-Benzyldecahydro-1H-pyrido[3,2-b]azepine]
inhibition at 10 µM [1]: 60% | inhibition at 10 µM [2]: 41% | inhibition at 10 µM [3]: 71%

c1ccc(CN2CCCC[C@@H]3NCCCC[C@H]32)cc1 [44b, 6-Benzyldodecahydroazepino[3,2-b]azepine]
inhibition at 10 µM [1]: 31.5% | inhibition at 10 µM [2]: 74.9% | inhibition at 10 µM [3]: 59.4%

c1ccc(CN2CCCC[C@H]3NCC[C@H]32)cc1 [(R,R)-1a, (3aR,8aR)-4-Benzyldecahydropyrrolo[3,2-b]azepine]
IC50 [2]: 230 ± 12 nM | inhibition at 0.1 µM [2]: 29.8% | inhibition at 10 µM [2]: 97.2% | IC50 [3]: 250 ± 32 nM | inhibition at 0.1 µM [3]: 26.3% | inhibition at 10 µM [3]: 95.9% | IC50 [4]: ~110 nM and 110 nM | ACHe (5 µM) [5]: 3.8 | Cannabinoid (5 µM) [6]: -13.4 | Cannabinoid 2 (5 µM) [7]: 11.9 | HEK-Gly-RA1 (5 µM) [8]: 4 | Dopamine D1 (5 µM) [9]: 3.5 | Dopamine D2s (5 µM) [10]: 11.7 | Dopamine D2L (5 µM) [11]: -0.3 | Dopamine D3 (5 µM) [12]: 6.1 | hERG (5 µM) [13]: 12.2 | Histaminic H1 (5 µM) [14]: -4.3 | Histaminic H2 [15]: -2 | Histaminic H3 (5 µM) [16]: 8.6 | Muscarinic M1 (5 µM) [17]: 78.7 | Muscarinic M2 (5 µM) [18]: 28.5 | Serotonin 5-HT 1A (5 µM) [19]: 18.9 | Serotonin 5-HT 1B (5 µM) [20]: -19.8 | Serotonin 5-HT 2A (5 µM) [21]: -0.9 | Serotonin 5-HT 2B (5 µM) [22]: 29.7 | Serotonin 5-HT 3 (5 µM) [23]: 5.2 | phenotype upon acute treatment ([24]; already after 40 min): pronounced sedative or lethargic phenotype | signs of acute toxicity (piloerection, hunched posture, convulsions, gastrointestinal distress) [24]: no signs of acute toxicity | AUC ([25]; iv): 799 ng·h/mL | AUC ([25]; po): 36.6 ng·h/mL | Tmax ([25]; po): 15 min

Clc1ccc(CN2CCCC[C@H]3NCC[C@H]32)cc1 [(R,R)-58, (3aR,8aR)-4-(4-Chlorobenzyl)decahydropyrrolo[3,2-b]azepine]
inhibition at 0.01 µM [1]: -15.2% | inhibition at 0.1 µM [1]: 6.4% | inhibition at 0.1 µM [2]: 12% | inhibition at 0.1 µM [3]: 78.2%

Clc1cccc(CN2CCCC[C@H]3NCC[C@H]32)c1 [(R,R)-59, (3aR,8aR)-4-(3-chlorobenzyl)decahydropyrrolo[3,2-b]azepine]
inhibition at 0.01 µM [1]: 55.9% | inhibition at 0.1 µM [1]: 97.1% | inhibition at 0.1 µM [2]: 74.9% | inhibition at 0.1 µM [3]: 98%

Clc1ccccc1CN1CCCC[C@H]2NCC[C@H]21 [(R,R)-60, (3aR,8aR)-4-(2-Chlorobenzyl)decahydropyrrolo[3,2-b]azepine]
inhibition at 0.01 µM [1]: 24% | inhibition at 0.1 µM [1]: 83.4% | inhibition at 0.1 µM [2]: 37.5% | inhibition at 0.1 µM [3]: 69.1%

Brc1cccc(CN2CCCC[C@H]3NCC[C@H]32)c1 [(R,R)-61, (3aR,8aR)-4-(3-Bromobenzyl)decahydropyrrolo[3,2-b]azepine]
inhibition at 0.01 µM [1]: 56.7% | inhibition at 0.1 µM [1]: 91.4% | inhibition at 0.1 µM [2]: 58% | inhibition at 0.1 µM [3]: 96.9%

c1ccc(CN2CCCC[C@@H]3NCC[C@@H]32)cc1 [(S,S)-1a, (3aS,8aS)-4-Benzyldecahydropyrrolo[3,2-b]azepine]
inhibition at 10 µM [2]: 94.4% | inhibition at 10 µM [3]: 91%

Clc1ccc2c(c1)C(N1CCNCC1)=Nc1ccccc1O2 [Amox, amoxapine]
IC50 [26]: 11 ± 2.3 nM

COc1ccc(C(CN(C)C)C2(O)CCCCC2)cc1 (stereo not shown) [Venla, venlafaxine]
IC50 [26]: 1340 ± 128 nM

(3aR,8aR)-4-(2,3-Dichlorobenzyl)decahydropyrrolo[3,2-b]azepine [(R,R)-62]
% Inhibition @ 10 nM on NET [1]: 74.8% | % Inhibition @ 100 nM on NET [1]: 96.4% | % Inhibition @ 100 nM on DAT [2]: 15.4% | % Inhibition @ 100 nM on SERT [3]: 97.8%

(3aR,8aR)-4-(3,5-Dichlorobenzyl)decahydropyrrolo[3,2-b]azepine [(R,R)-63]
% Inhibition @ 10 nM on NET [1]: 63.4% | % Inhibition @ 100 nM on NET [1]: 93.7% | % Inhibition @ 100 nM on DAT [2]: 89% | % Inhibition @ 100 nM on SERT [3]: 99.7%
